In article PMC7932537, “Quantitative profiling of protease specificity” (PLoS Computational Biology, 2021):

What was measured:
MMP-2 = target: T1, MMP-2 (Homo sapiens, UniProt P08253); assay: K(obs) of individual phage substrates (set of 1369); assay type: biochemical; conditions: MMP2
T1 sequence (P08253 110-660): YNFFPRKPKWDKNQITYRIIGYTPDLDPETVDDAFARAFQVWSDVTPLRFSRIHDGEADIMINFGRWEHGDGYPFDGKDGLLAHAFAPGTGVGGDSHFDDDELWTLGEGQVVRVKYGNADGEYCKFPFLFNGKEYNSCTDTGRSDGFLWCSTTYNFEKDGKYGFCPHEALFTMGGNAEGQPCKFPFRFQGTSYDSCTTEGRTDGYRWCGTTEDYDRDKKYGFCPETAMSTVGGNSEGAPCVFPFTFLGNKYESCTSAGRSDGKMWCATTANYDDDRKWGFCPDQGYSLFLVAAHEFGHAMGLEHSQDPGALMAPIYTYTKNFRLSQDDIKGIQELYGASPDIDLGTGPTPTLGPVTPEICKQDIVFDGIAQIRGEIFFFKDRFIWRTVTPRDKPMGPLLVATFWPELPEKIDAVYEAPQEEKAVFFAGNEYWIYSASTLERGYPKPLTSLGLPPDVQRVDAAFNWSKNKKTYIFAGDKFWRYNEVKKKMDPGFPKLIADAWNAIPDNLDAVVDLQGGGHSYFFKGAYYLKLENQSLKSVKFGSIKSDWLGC

MMP-9 = MMP-9 (Homo sapiens, UniProt P14780); assay: as above; assay type: biochemical; conditions: MMP9, individual phage substrates, set of 1369 peptides
[1] = individual phage substrates, set of 1369 peptides, cleavage position marked by '-' in the sequence
[2] = '-' marks the cleavage position (P1-P1')
[3] = individual phage substrate from the set of 1369 peptides, cleavage position marked by the dash in the sequence
[4] = dash in sequence marks cleavage position

MMP-9, sequence (P14780 94-707): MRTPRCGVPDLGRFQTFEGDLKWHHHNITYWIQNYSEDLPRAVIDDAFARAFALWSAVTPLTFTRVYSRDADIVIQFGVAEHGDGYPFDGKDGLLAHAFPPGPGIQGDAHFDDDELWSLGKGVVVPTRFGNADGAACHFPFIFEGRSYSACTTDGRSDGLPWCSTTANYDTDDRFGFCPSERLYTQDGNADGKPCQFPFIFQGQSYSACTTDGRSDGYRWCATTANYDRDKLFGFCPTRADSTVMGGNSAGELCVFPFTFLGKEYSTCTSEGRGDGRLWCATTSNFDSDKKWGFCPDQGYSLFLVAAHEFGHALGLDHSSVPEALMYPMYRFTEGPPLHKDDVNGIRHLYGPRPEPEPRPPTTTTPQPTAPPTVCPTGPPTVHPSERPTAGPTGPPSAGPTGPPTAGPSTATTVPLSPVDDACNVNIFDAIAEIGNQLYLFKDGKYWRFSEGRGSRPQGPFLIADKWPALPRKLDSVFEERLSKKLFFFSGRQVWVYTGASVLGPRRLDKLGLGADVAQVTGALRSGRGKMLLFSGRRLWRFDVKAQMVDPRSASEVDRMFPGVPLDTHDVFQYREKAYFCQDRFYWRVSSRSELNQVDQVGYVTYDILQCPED

Substance | Kobs (MMP-2; [1]) [M⁻¹ s⁻¹] | Kobs (MMP-9; [2]) [M⁻¹ s⁻¹] | Kobs (MMP-2; [3]) [M⁻¹ s⁻¹] | Kobs (MMP-9; [4]) [M⁻¹ s⁻¹]
HRPFG-LTASG | 12792.1 | 12792.1 |  | 
IEYLN-YTASG | 231.616 | 355.093 |  | 
ISPAT-LTASG | 12792.1 | 12792.1 |  | 
KAALP-LTASG | 2916.17 | 3964.21 |  | 
KAPLK-LTASG |  |  | 12792.1 | 12792.1
KMPRW-ITASG |  |  | 6131.32 | 9740.44
KSPAY-LTASG |  |  | 10866.7 | 10866.7
KSPRM-LTASG |  |  | 12792.1 | 12792.1
KVLAS-LTASG |  |  | 10866.7 | 0
KWPER-LTASG |  |  | 2038.8 | 1925.41
LGWSS-LTASG |  |  | 3344.37 | 0
LPTRW-LTASG | 7815.03 | 4082.43 |  | 
LQPLT-ITASG | 5090.5 | 12792.1 |  | 
MKPVN-LTASG | 12792.1 | 12792.1 |  | 
MVVRH-LTASG |  |  | 12792.1 | 12792.1
NDLAH-ITASG |  |  | 10866.7 | 0
NKTAW-LTASG | 7386.83 | 799.117 |  | 
NRIGN-FTASG | 7815.03 | 0 |  | 
NSHMA-LTASG |  |  | 517.582 | 619.843
NTFLH-LTASG |  |  | 0 | 0
PGVRF-LTASG | 8941.32 | 7815.03 |  | 
PMARY-LTASG | 12792.1 | 3637.04 |  | 

Substance | Kobs (MMP-2; [1]) [M⁻¹ s⁻¹] | Kobs (MMP-9; [2]) [M⁻¹ s⁻¹] | Kobs (MMP-2; [3]) [M⁻¹ s⁻¹] | Kobs (MMP-9; [4]) [M⁻¹ s⁻¹]
PSPRA-ITASG | 12792.1 | 12792.1 |  | 
QRMDL-LTASG | 0 | 0 |  | 
QRVLP-LTASG |  |  | 6396.07 | 2038.8
QVPVF-LTASG | 12792.1 | 8321.48 |  | 
RAGFQ-LTASG |  |  | 0 | 0
RGMQN-LTASG | 1610.61 | 690.17 |  | 
RHLAK-LTASG | 9740.44 | 0 |  | 
RRPLR-ITASG |  |  | 3165.09 | 12792.1
RRVLA-LTASG |  |  | 12792.1 | 12792.1
RTYSH-LTASG | 3079.62 | 0 |  | 
RVLSR-LTASG | 8941.32 | 0 |  | 
RYPWA-LTASG | 8941.32 | 12792.1 |  | 
SDIRW-LTASG | 7386.83 | 4335.13 |  | 
SGAFH-ILGTA | 1030.73 | 5667.28 |  | 
SGALA-LLDTA | 0 | 619.843 |  | 
SGALG-LLETA | 171.876 | 171.876 |  | 
SGALH-LRETA | 201.585 | 201.585 |  | 
SGANS-LVATA | 1327.88 | 27.918 |  | 
SGAQA-LTLTA | 171.876 | 113.394 |  | 
SGAVA-LRLTA | 1981.53 | 3438.54 |  | 
SGAWN-MRVTA | 292.668 | 3079.62 |  | 

Continued, values first:

Kobs (MMP-2; [1]) [M⁻¹ s⁻¹] | Kobs (MMP-9; [2]) [M⁻¹ s⁻¹] | Kobs (MMP-2; [3]) [M⁻¹ s⁻¹] | Kobs (MMP-9; [4]) [M⁻¹ s⁻¹] | Substance
12792.1 | 201.585 |  |  | HVLQN-LTASG
 |  | 10866.7 | 10866.7 | HWPRF-LTASG
12792.1 | 12792.1 |  |  | HYPSS-LTASG
10866.7 | 323.705 |  |  | IFINF-LTASG
5090.5 | 201.585 |  |  | IGYAW-MTASG
12792.1 | 113.394 |  |  | IMMAY-LTASG
12792.1 | 5090.5 |  |  | IQLAW-LTASG
1196.62 | 12792.1 |  |  | ISPML-LTASG
2038.8 | 56.119 |  |  | IVNAR-LTASG
 |  | 12792.1 | 551.253 | KPVSA-LTASG
12792.1 | 1283.43 |  |  | KRAAS-LTASG
1513.13 | 4335.13 |  |  | LPALN-MTASG
12792.1 | 12792.1 |  |  | LVVAA-LTASG
8941.32 | 726.013 |  |  | MAYQS-LTASG
 |  | 1327.88 | 0 | MDLLS-LTASG
1373.05 | 690.17 |  |  | MFHLN-ITASG
12792.1 | 12792.1 |  |  | MVPHM-LTASG
7015.91 | 8941.32 |  |  | MVPSA-LTASG
912.511 | 726.013 |  |  | NFGRP-LTASG
12792.1 | 12792.1 |  |  | NFPMS-LTASG

Kobs (MMP-2; [1]) [M⁻¹ s⁻¹] | Kobs (MMP-9; [2]) [M⁻¹ s⁻¹] | Kobs (MMP-2; [3]) [M⁻¹ s⁻¹] | Kobs (MMP-9; [4]) [M⁻¹ s⁻¹] | Substance
12792.1 | 12792.1 |  |  | NRPSA-LTASG
 |  | 6396.07 | 2097.28 | NSPQL-LTASG
3637.04 | 6688.74 |  |  | PDVFA-LTASG
7815.03 | 2218.08 |  |  | PGIAN-LTASG
 |  | 12792.1 | 10866.7 | PSPRY-LTASG
 |  | 386.839 | 0 | PTLWR-ITASG
836.403 | 5461.43 |  |  | PVVWW-QTASG
 |  | 3253.29 | 551.253 | PYAEN-LTASG
3964.21 | 3253.29 |  |  | QAAFH-LTASG
12792.1 | 484.315 |  |  | QHLAA-LTASG
5889.62 | 0 |  |  | QKYSN-LTASG
551.253 | 0 |  |  | QRANS-ITASG
12792.1 | 4205.91 |  |  | QSPVQ-LTASG
0 | 56.119 |  |  | RDLWK-LTASG
3964.21 | 6688.74 |  |  | RDVLW-LTASG
 |  | 10866.7 | 10866.7 | RGPVF-LTASG
 |  | 0 | 1071.29 | RGVWK-LTASG
 |  | 1154.21 | 726.013 | RHMLG-LTASG
4613.14 | 5667.28 |  |  | RKALN-LTASG
7815.03 | 142.481 |  |  | RNLAS-LTASG

Kobs (MMP-2; [1]) [M⁻¹ s⁻¹] | Kobs (MMP-9; [2]) [M⁻¹ s⁻¹] | Kobs (MMP-2; [3]) [M⁻¹ s⁻¹] | Kobs (MMP-9; [4]) [M⁻¹ s⁻¹] | Substance
 |  | 2409.72 | 484.315 | RNVNF-LTASG
27.918 | 231.616 |  |  | RPAQD-LTASG
5090.5 | 7015.91 |  |  | RRPAS-MTASG
8321.48 | 1373.05 |  |  | RRTAW-LTASG
4922.1 | 12792.1 |  |  | RSPLM-MTASG
12792.1 | 12792.1 |  |  | RTPLM-LTASG
12792.1 | 7815.03 |  |  | RVIRH-LTASG
 |  | 1870.4 | 4922.1 | RVPKL-LTASG
12792.1 | 12792.1 |  |  | RVPRG-LTASG
 |  | 9740.44 | 8941.32 | RWPAW-LTASG
6688.74 | 5090.5 |  |  | RYPVN-MTASG
9740.44 | 7815.03 |  |  | SAVRA-LTASG
323.705 | 451.441 |  |  | SGAFS-LMRTA
 |  | 142.481 | 517.582 | SGAGR-LRATA
 |  | 0 | 0 | SGALD-LKRTA
0 | 0 |  |  | SGAMN-LTLTA
 |  | 1465.65 | 418.952 | SGANY-IRATA
 |  | 0 | 0 | SGARG-IKLTA
10866.7 | 12792.1 |  |  | SGARN-LMATA
